Numbered stars: 1 amine (or outer) side, 2 acyl side, 3 side chain; on linkers, the order of the positions; unused ones are H or OH. Bridge positions count the residues as written; N and C are the ends. Square brackets hold non-standard residues; d marks the D form. Peptide text beside a SMILES is read from it. ξ: configuration not given here. ξαMeNle(6-ylidene) = CC(CCCC=[*:3])(N[*:1])C(=O)[*:2]; X1 = CC(CCCCCCC=[*:3])(N[*:1])C(=O)[*:2]
Key:
Assay type in all cases: cell-based
NCI-H82 = conditions: 72 h
Method: NCI-H82, epithelial (small cell lung cancer, SCLC), ATCC-CRL-5811;
(§1) Cell line MCF-7 was cultured in incubator under CO2 (6%) at 37° C. in DMEM high glucose (Dulbecco's Modified Eagle Solution, Gibco-BRL 31966-21) medium with 10% fetal bovine serum inactivated (FBS) (Gibco-BRL 10106-169). Cell lines HL-60, NCI-H524, NCI-H526, NCI-H69, NCI-H82, NCI-H187 and H5B were cultured in an incubator at 37° C. in RPMI-1640 (Sigma R8758) medium with 10% of fetal bovine serum inactivated (FBS) and 2 mM glutamine (Sigma G7513). Cell line NCI-H510A was cultured in incubator in F12K medium with 10% of fetal bovine serum inactivated (FBS). Cell line GBM-18 and GBM-27 were cultured in incubator under CO2 (6%) at 37° C. in complete medium (Neurobasal+B27+Glutamax+Growth factors).
(§2) During the amplification step and the assays, adherent cells were rinsed with DPBS (Dulbecco's Phosphate Buffered Saline, Sigma D1283) three times and afterward treated for 5 minutes with trypsin ([…]) (Gibco-BRL, 15400054) in solution of DPBS at 37° C., and, once detached, transferred in the culturing medium. No-adherent cells were centrifuged and transferred in the culturing medium. Cells were counted in a Neubauer chamber after labelling with Tripan-Blue.
(§3) MCF-7, NCI-H187, NCI-H69, NCI-H526 and H5B cells were seeded at a density of 5000 cells/well; NCI-H524 and NCI-H82 were seeded at a density of 2500 cells/well; HL-60 and NCI-H510A at 10000 cells/well in 100 μl of medium in 96 well plates. After 24 h, the compounds to be tested were added to calculate the dose/response curve at the starting concentration of 100 μM with serial dilutions (1:1). Controls were the untreated cells. Each experiment was performed in triplicate.
(§4) Cells were incubated during 72 h in incubator under CO2 atmosphere at 37° C. Cell viability was measured by means of MTT (3-(4,5-dimethylthiazol-2-yl)-2,5-diphenyltetrazolium bromide) assay, Alamar Blue® (Biosource DAL1100) and Hexosaminidase activity test, consecutively, following manufacturer instructions.
(§5) MTT: 1. Stock solution of MTT (475989 Calbiochem) was 5 mg/ml in PBS 1×. As negative control (experiment noise) 3 wells were treated with 20 μl/well of a solution of SDS 10% in H2O. The same control was used for Alamar Blue/Hexosaminidase. 10 μl/well of MTT solution were added and the plate was incubated for 3-4 hr. The medium was discarded and 100 μl of extracting buffer (PBS 1×, 15% SDS, 50% […] N,N-Dimethylformamide, pH 4,7) were added to each well. Plates were incubated for 16 h at room temperature under orbital shaking. Absorbance at 570 nm was finally measured.
(§6) Alamar Blue: 10 μl Alamar Blue solution was added to each well and the plates were incubated for […] in the incubator. Fluorescence ratio at 535/590 (excitation/emission) was measured in Cytofluor (Millipore) fluorimeter. Blank control was determined by lysis of untreated cells with con 2% of Triton X100, right before adding Alamar Blue solution.
(§7) Hexosaminidase activity test: after Alamar Blue lecture, medium was discarded and plates were rinsed once with PBS. 60 μl hexosaminidase substrate (p-nitrophenol-N-acetyl-beta-D-glucosamide 7.5 mM [Sigma N-9376], sodium citrate 0.1 M, pH 5.0, 0.25% Triton X-100) was added to each well and the plates were incubated at 37° C. for 2-5 h, according to the cell type (hexosaminidase activity changes according to the cell type). […] Blank control was the same as described before.
(§8) Data analysis was performed calculating the percentage of cell viability normalized vs. the values of negative control, which was considered equal to 100%. The dose/response curve was fitted through the sigmoidal equation dose-response (variable slope) and the EC50 values were calculated as follow: Y=Bottom+(Top−Bottom)/(1+10^{[(Log EC50−X)*HillSlope]},

NCI-H187 = conditions: 72 h
Method: NCI-H187, epithelial (small cell lung cancer, SCLC), ATCC-CRL-5804;
as §1, §2, §3, §4, §5, §6, §7, §8

NCI-H524 = conditions: 72 h
Method: NCI-H524, lung (small cell lung cancer, SCLC), ATCC-CRL-5831;
as §1
as §2, with “Tripan-Blue. […]” for “Tripan-Blue.”
as §4
MTT: 1. […] Absorbance at 570 nm was finally measured.
as §6, with “solution. […]” for “solution.”

NCI-H510A = conditions: 72 h
Method: NCI-510A, epithelial (small cell lung cancer, SCLC), ATCC-HBT-124; and Hepatocytes (normal liver), from a donor was provided by Foundation DTI-Donation & Transplantation Institute from surgical wastes and from organs not suitable for transplantation
as §1, §2, §3, §4, §5, §6, §7, §8

GBM-18 = test system: GBM-18
Method: GMB-18, epithelial (glioblastoma, GMB), from surgical specimens from patients;
as §1, with “Cell line GBM-18 and GBM-27 were cultured in incubator under CO2 (6%) at 37° C. in complete medium (Neurobasal+B27+Glutamax+Growth factors).” left out
as §2, with “No-adherent cells were centrifuged and transferred in the culturing medium.” left out
as §4, with “instructions. […]” for “instructions.”

GBM-27 = test system: GBM-27
Method: GMB-27, epithelial (glioblastoma, GMB), from surgical specimens from patients;
as §1, with “Cell line GBM-18 and GBM-27 were cultured in incubator under CO2 (6%) at 37° C. in complete medium (Neurobasal+B27+Glutamax+Growth factors).” left out
as §2, with “No-adherent cells were centrifuged and transferred in the culturing medium.” left out
as §4, with “instructions. […]” for “instructions.”

`CC(C)C[C@H](NC(=O)[C@H](CCCCN)NC(=O)[C@@H](NC(=O)[C@@H](N)CCCNC(=N)N)C(C)C)C(=O)N[C@H](C(=O)N[C@@H](CC(N)=O)C(=O)N[C@@H](CC(C)C)C(=O)NC1(C)CCCCCCC=CCCCC(C)(C(=O)N[C@H](C(=O)N2CCC[C@H]2C(N)=O)C(C)C)NC(=O)[C@H](CCC(=O)O)NC(=O)[C@H](CCCNC(=N)N)NC(=O)[C@H](CC(C)C)NC(=O)[C@H]([C@@H](C)O)NC(=O)[C@H](C)NC(=O)[C@H](Cc2ccccc2)NC1=O)C(C)C` (stereo partly drawn) [H14] (H-RVKLVNL[X1]FATLRE[ξαMeNle(6-ylidene)]VP-NH2; staple 8-15; N-terminus and C-terminus assumed) was tested, and the EC50 (NCI-H82) was ~12.5 µM, the EC50 (NCI-H187) was ~10 µM and the EC50 (NCI-H524) was ~12.5 µM. The EC50 (NCI-H510A) was ~12 µM, the EC50 (GBM-18) was ~4 µM and the EC50 (GBM-27) was ~5 µM.

From US11440939B2, “Anticancer peptides” (IDP DISCOVERY PHARMA, S.L., priority 2017, dated 2022)
